Drawing on ChEMBL document CHEMBL1914354, “Design, synthesis and antiepileptic properties of novel 1-(substituted benzylidene)-3-(1-(morpholino/piperidino methyl)-2,3-dioxoindolin-5-yl)urea derivatives” (Eur J Med Chem, 2011), this text covers Activity, minimal effective dose and MTC for 19 compounds.

Calls of active or inactive are those of the source. The calls are words filed in the database; no cut-off is given here.

The test system of data set [1] is Mus musculus. The experiment in a line: Neurotoxicity in ip dosed Swiss albino mouse assessed as minimal motor impairment at 300 mg/kg, ip after 4 hrs by rotarod test. The data set is classed as toxicity, organism-based. More on the design: dose 300 mg/kg, route intraperitoneal. As to conditions: in vivo.
Data set [2] deals with Mus musculus. In words: Neurotoxicity in Swiss albino mouse assessed as minimal motor impairment at 300 mg/kg, ip after 0.5 hrs by rotarod test. The data set is classed as toxicity, organism-based. Further details: dose 300 mg/kg, route intraperitoneal. As to conditions: in vivo.
The test system of data set [3] is Mus musculus. The experiment in a line: Antiepileptic activity in ip dosed Swiss albino mouse assessed as dose required to protect against maximum electric shock-induced seizure after 4 hrs. The format is functional. Conditions: read-out: MED.
The test system of data set [4] is Mus musculus. In words: Antiepileptic activity in ip dosed Swiss albino mouse assessed as dose required to protect against subcutaneous pentylenetetrazol-induced clonic seizures after 0.5 hrs. The data set is classed as functional. As to conditions: read-out: MED.
The subject of data set [5] is Mus musculus. In words: Antiepileptic activity in ip dosed Swiss albino mouse assessed as dose required to protect against maximum electric shock-induced seizure after 0.5 hrs. The format is functional. Conditions: read-out: MED.
Data set [6] has as its system Mus musculus. In words: Antiepileptic activity in ip dosed Swiss albino mouse assessed as protection against subcutaneous pentylenetetrazol-induced clonic seizures at 300 mg/kg, ip after 4 hrs. More on the design: dose 300 mg/kg. The data set is classed as functional, organism-based.
Data set [7] concerns Mus musculus. In words: Antiepileptic activity in Swiss albino mouse assessed as protection against maximum electric shock-induced seizure at 300 mg/kg, ip after 0.5 hrs. The format is functional, organism-based. More on the design: dose 300 mg/kg.
Data set [8] has as its system Mus musculus. The experiment in a line: Antiepileptic activity in ip dosed Swiss albino mouse assessed as protection against subcutaneous pentylenetetrazol-induced clonic seizures at 300 mg/kg, ip after 0.5 hrs. The data set is classed as functional, organism-based. More on the design: dose 300 mg/kg.
Data set [9] has as its system Mus musculus. The experiment in a line: Antiepileptic activity in ip dosed Swiss albino mouse assessed as dose required to protect against subcutaneous pentylenetetrazol-induced clonic seizures after 4 hrs. The data set is classed as functional. As to conditions: read-out: MED.
The subject of data set [10] is Mus musculus. The experiment in a line: Antiepileptic activity in Swiss albino mouse assessed as protection against maximum electric shock-induced seizure at 300 mg/kg, ip after 4 hrs. The data set is classed as functional, organism-based. Further details: dose 300 mg/kg.
The test system of data set [11] is Rattus norvegicus. The experiment in a line: Neurotoxicity in Wistar rat assessed as minimal motor impairment at 30 mg/kg, po by rotarod method. The data set is classed as toxicity, organism-based. More on the design: dose 30 mg/kg, route oral. As to conditions: in vivo.
Data set [12] has as its system Rattus norvegicus. In words: Antiepileptic activity in Wistar rat assessed as protection against maximum electric shock-induced seizure at 30 mg/kg, po after 0.5 hrs. The data set is classed as functional.
The test system of data set [13] is Rattus norvegicus. The experiment in a line: Antiepileptic activity in Wistar rat assessed as protection against maximum electric shock-induced seizure at 30 mg/kg, po after 2 hrs. The data set is classed as functional.
Data set [14] relates to Mus musculus. In words: Neurotoxicity in ip dosed Swiss albino mouse assessed as dose required for minimal motor impairment after 4 hrs by rotarod test. The data set is classed as toxicity, organism-based. Conditions: in vivo.
In data set [15] the test system is Rattus norvegicus. In words: Antiepileptic activity in Wistar rat assessed as protection against maximum electric shock-induced seizure at 30 mg/kg, po after 1 hr. The format is functional.
Data set [16] deals with Mus musculus. In words: Neurotoxicity in ip dosed Swiss albino mouse assessed as dose required for minimal motor impairment after 0.5 hrs by rotarod test. Conditions: in vivo. The data set is classed as toxicity, organism-based.
Data set [17] concerns Rattus norvegicus. In words: Antiepileptic activity in Wistar rat assessed as protection against maximum electric shock-induced seizure at 30 mg/kg, po after 0.25 hrs. The data set is classed as functional.
Data set [18] deals with Rattus norvegicus. The experiment in a line: Antiepileptic activity in Wistar rat assessed as protection against maximum electric shock-induced seizure at 30 mg/kg, po after 4 hrs. The format is functional.

`O=C(/N=C/c1ccc(Br)cc1)Nc1ccc2c(c1)C(=O)C(=O)N2CN1CCOCC1`: the Activity result in the data set on Mus musculus [1] and in the data set with Mus musculus [2] was “Non-toxic” in each case. Also, the results for the minimal effective dose with Mus musculus [3], with Mus musculus [4] and with Mus musculus [5] were 300 mg/kg, 300 mg/kg and 100 mg/kg, respectively. In addition, the outcome in the data set with Mus musculus [6] was inactive.
`O=C(/N=C/c1cccc([N+](=O)[O-])c1)Nc1ccc2c(c1)C(=O)C(=O)N2CN1CCCCC1`: the result in the data set with Mus musculus [7], in the data set on Mus musculus [8] and in the data set with Mus musculus [10] was inactive. Besides, in the data set on Mus musculus [9], the minimal effective dose was found to be 300 mg/kg.
Turning to `CCC1(C)CC(=O)NC1=O` (stereo not given) [ETHOSUXIMIDE], the Activity result in the data set with Mus musculus [1] and with Mus musculus [2] was “Non-toxic” throughout. Moreover, the outcome with Mus musculus [7] and with Mus musculus [10] was inactive. Besides, the figures for the minimal effective dose in the data set with Mus musculus [4] and with Mus musculus [9] were 100 mg/kg and 300 mg/kg, respectively.
As for `O=C1NC(=O)C(c2ccccc2)(c2ccccc2)N1` [PHENYTOIN], the Activity result with Rattus norvegicus [11] is “Non-toxic”; in the data set on Rattus norvegicus [12] it was 100%; in the data set on Rattus norvegicus [13], 75%; in the data set with Rattus norvegicus [15], 75%; in the data set on Rattus norvegicus [17] it was 25%; in the data set on Rattus norvegicus [18], 75%. The minimal effective dose with Mus musculus [3] and in the data set on Mus musculus [5] was 30 mg/kg in each case. Besides, the outcome with Mus musculus [8] and in the data set with Mus musculus [6] was inactive. For the same compound, the MTC in the data set on Mus musculus [14] and in the data set on Mus musculus [16] was 100 mg/kg throughout.
Turning to `COc1ccc(/C=N/C(=O)Nc2ccc3c(c2)C(=O)C(=O)N3CN2CCCCC2)cc1`, the result in the data set on Mus musculus [7] and in the data set on Mus musculus [6] was inactive. Also, the minimal effective dose in the data set on Mus musculus [3] and in the data set on Mus musculus [4] was 300 mg/kg each time.
Regarding `Cc1ccc(/C=N/C(=O)Nc2ccc3c(c2)C(=O)C(=O)N3CN2CCCCC2)cc1`, the result in the data set with Mus musculus [7], in the data set with Mus musculus [10] and in the data set on Mus musculus [6] was inactive. For the same compound, the minimal effective dose in the data set with Mus musculus [4] is 300 mg/kg.
Take `O=C(/N=C/c1ccc(Cl)cc1)Nc1ccc2c(c1)C(=O)C(=O)N2CN1CCCCC1`: the Activity entry in the data set on Mus musculus [2] is recorded as “Non-toxic”. Also, the minimal effective dose was 300 mg/kg with Mus musculus [3], 300 mg/kg in the data set with Mus musculus [4] and 100 mg/kg in the data set with Mus musculus [5]. Further, in the data set with Mus musculus [14], the MTC stood at 300 mg/kg. For the same compound, the result with Mus musculus [6] was inactive.
Turning to `O=C(/N=C/c1ccc([N+](=O)[O-])cc1)Nc1ccc2c(c1)C(=O)C(=O)N2CN1CCCCC1`, the Activity result with Rattus norvegicus [11] is “Non-toxic”; in the data set with Rattus norvegicus [12], 50%; in the data set with Rattus norvegicus [13], 0%; in the data set on Rattus norvegicus [15], 25%; in the data set on Rattus norvegicus [17] it was 0%; with Rattus norvegicus [18] it was 0%. The minimal effective dose in the data set with Mus musculus [3] is 100 mg/kg; in the data set on Mus musculus [4], 300 mg/kg; in the data set on Mus musculus [9], 300 mg/kg; in the data set with Mus musculus [5], 30 mg/kg. Moreover, the MTC with Mus musculus [14] and with Mus musculus [16] was 300 mg/kg in each case.
Take `O=C(/N=C/c1cccc([N+](=O)[O-])c1)Nc1ccc2c(c1)C(=O)C(=O)N2CN1CCOCC1`: the result with Mus musculus [7], in the data set with Mus musculus [8] and in the data set on Mus musculus [6] was inactive. Besides, the minimal effective dose in the data set with Mus musculus [3] stood at 300 mg/kg.
With `O=C(/N=C/c1ccccc1Cl)Nc1ccc2c(c1)C(=O)C(=O)N2CN1CCCCC1`, the minimal effective dose was 300 mg/kg in the data set on Mus musculus [3], 300 mg/kg in the data set with Mus musculus [4] and 100 mg/kg in the data set with Mus musculus [5]. Further, the MTC in the data set on Mus musculus [14] came out at 300 mg/kg; in the data set on Mus musculus [16], 100 mg/kg. For the same compound, the outcome in the data set with Mus musculus [6] was inactive.
Turning to `O=C(/N=C/c1ccccc1Cl)Nc1ccc2c(c1)C(=O)C(=O)N2CN1CCOCC1`, the Activity entry in the data set with Mus musculus [1] is given as “Non-toxic”. Further, the minimal effective dose in the data set on Mus musculus [3] was found to be 300 mg/kg; with Mus musculus [4], 300 mg/kg; in the data set on Mus musculus [5], 100 mg/kg. For the same compound, the MTC with Mus musculus [16] is 300 mg/kg. Further, in the data set on Mus musculus [6], the result was inactive.
As for `O=C(/N=C/c1ccccc1)Nc1ccc2c(c1)C(=O)C(=O)N2CN1CCCCC1`, the result in the data set with Mus musculus [7], with Mus musculus [10] and with Mus musculus [6] was inactive. In addition, the minimal effective dose in the data set with Mus musculus [4] came out at 300 mg/kg.
As to `Cc1ccc(/C=N/C(=O)Nc2ccc3c(c2)C(=O)C(=O)N3CN2CCOCC2)cc1`, the Activity result in the data set with Mus musculus [1] and in the data set on Mus musculus [2] was “Non-toxic” each time. For the same compound, the outcome in the data set with Mus musculus [8] and in the data set on Mus musculus [10] was inactive. In addition, the minimal effective dose in the data set on Mus musculus [9] and in the data set on Mus musculus [5] was 300 mg/kg in each case.
Consider `O=C(/N=C/c1ccc(Br)cc1)Nc1ccc2c(c1)C(=O)C(=O)N2CN1CCCCC1`, for which the Activity entry in the data set on Rattus norvegicus [11] was “Non-toxic”; with Rattus norvegicus [12], 50%; with Rattus norvegicus [13], 100%; in the data set on Rattus norvegicus [15] it was 50%; in the data set on Rattus norvegicus [17] it was 25%; in the data set on Rattus norvegicus [18], 100%. Also, the minimal effective dose with Mus musculus [3] was 300 mg/kg; in the data set on Mus musculus [9], 300 mg/kg; in the data set with Mus musculus [5], 30 mg/kg. For the same compound, the result with Mus musculus [8] was inactive. In addition, the MTC with Mus musculus [14] was determined as 300 mg/kg; with Mus musculus [16], 100 mg/kg.
Consider `O=C(/N=C/c1ccc(F)cc1)Nc1ccc2c(c1)C(=O)C(=O)N2CN1CCCCC1`, for which the minimal effective dose in the data set with Mus musculus [3] worked out at 300 mg/kg; with Mus musculus [4], 100 mg/kg; with Mus musculus [5], 100 mg/kg. The MTC in the data set with Mus musculus [14] and in the data set with Mus musculus [16] was 300 mg/kg throughout. Also, the result in the data set with Mus musculus [6] was inactive.
Consider `O=C(/N=C/c1ccc([N+](=O)[O-])cc1)Nc1ccc2c(c1)C(=O)C(=O)N2CN1CCOCC1`, for which the Activity entry with Mus musculus [1] and in the data set on Mus musculus [2] was “Non-toxic” each time. Further, the outcome in the data set with Mus musculus [8] and in the data set on Mus musculus [10] was inactive. The minimal effective dose in the data set with Mus musculus [9] came out at 300 mg/kg; with Mus musculus [5], 100 mg/kg.
With `O=C(/N=C/c1ccc(O)cc1)Nc1ccc2c(c1)C(=O)C(=O)N2CN1CCCCC1`, the Activity result in the data set on Mus musculus [1] and with Mus musculus [2] was “Non-toxic” each time. The outcome with Mus musculus [8] and with Mus musculus [10] was inactive. Also, the minimal effective dose in the data set on Mus musculus [9] and in the data set with Mus musculus [5] was 300 mg/kg each time.
On to `O=C(/N=C/c1ccccc1)Nc1ccc2c(c1)C(=O)C(=O)N2CN1CCOCC1`, for which the outcome in the data set on Mus musculus [7], in the data set on Mus musculus [8] and in the data set with Mus musculus [6] was inactive. Moreover, the minimal effective dose in the data set with Mus musculus [3] came to 300 mg/kg.
Regarding `COc1ccc(/C=N/C(=O)Nc2ccc3c(c2)C(=O)C(=O)N3CN2CCOCC2)cc1`, the outcome in the data set with Mus musculus [7], in the data set with Mus musculus [8] and with Mus musculus [10] was inactive. For the same compound, the MTC in the data set with Mus musculus [14] and in the data set on Mus musculus [16] was 300 mg/kg throughout. For the same compound, in the data set with Mus musculus [9], the minimal effective dose came out at 300 mg/kg.
